From PubChem BioAssay AID1963868 (Molecular Pharmacology Branch, DTP, NCI, 2024)

Tested on: KRAS PDC tumor spheroids (HUVEC+MSC), viability
Test: Anticancer human tumor 254851-301-R-J1-PDC patient-derived colon carcinoma cell line growth inhibition [KRAS2]
Conditions: for IC50: curve of first compound; for viability, T/C: stronger effect = lower value
In short: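 Combination screen of spheroid viability in tumor-cell co-cultures with endothelial (HUVEC) and mesenchymal stem cell stroma. Each agent was tested in half-log dilutions, topping at clinical Cmax or at 10 microM without a known Cmax.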

[1] = second compound 0.1 µM, first compound 0.01 µM
[2] = second compound 0.1 µM, first compound 0.0316 µM
[3] = second compound 0.1 µM, first compound 0.1 µM
[4] = second compound 0.1 µM, first compound 0.316 µM
[5] = second compound 0.1 µM, first compound 1 µM
[6] = second compound 0.1 µM, first compound 3.16 µM
[7] = second compound 0.316 µM, first compound 0.01 µM
[8] = second compound 0.316 µM, first compound 0.0316 µM
[9] = second compound 0.316 µM, first compound 0.1 µM
[10] = second compound 0.316 µM, first compound 0.316 µM
[11] = second compound 0.316 µM, first compound 1 µM
[12] = second compound 0.316 µM, first compound 3.16 µM
[13] = second compound 1 µM, first compound 0.01 µM
[14] = second compound 1 µM, first compound 0.0316 µM
[15] = second compound 1 µM, first compound 0.1 µM
[16] = second compound 1 µM, first compound 0.316 µM
[17] = second compound 1 µM, first compound 1 µM
[18] = second compound 1 µM, first compound 3.16 µM
[19] = second compound 3.16 µM, first compound 0.01 µM
[20] = second compound 3.16 µM, first compound 0.0316 µM
[21] = second compound 3.16 µM, first compound 0.1 µM
[22] = second compound 3.16 µM, first compound 0.316 µM
[23] = second compound 3.16 µM, first compound 1 µM
[24] = second compound 3.16 µM, first compound 3.16 µM
[25] = second compound 10 µM, first compound 0.01 µM
[26] = second compound 10 µM, first compound 0.0316 µM
[27] = second compound 10 µM, first compound 0.1 µM
[28] = second compound 10 µM, first compound 0.316 µM
[29] = second compound 10 µM, first compound 1 µM
[30] = second compound 10 µM, first compound 3.16 µM
[31] = second compound 0.1 µM, first compound 10 µM
[32] = second compound 0.316 µM, first compound 10 µM
[33] = second compound 1 µM, first compound 10 µM
[34] = second compound 3.16 µM, first compound 10 µM
[35] = second compound 10 µM, first compound 10 µM
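Further: spheroids exposed to compounds for seven days before readout.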
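Wherever viability, T/C is given: 100% = DMSO vehicle control luminescence of the spheroids.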

Molecule `CC1COCCN1c1cc(-c2ccnn2C)c2ccnc(-c3ccn[nH]3)c2n1` (stereo not given) + CNCc1ccccc1-c1csc(C(C)Nc2nc(C)nc3cc(OC)c(OC)cc23)c1 has an IC50 (second compound 0.1 µM) of 278 nM, an IC50 (second compound 0.316 µM) of 217 nM and an IC50 (second compound 1 µM) of 252 nM. For the same molecule, the IC50 (second compound 3.16 µM) was under 10 nM, the IC50 (second compound 10 µM) was under 10 nM and the viability, T/C [1] was 107%. The viability, T/C [2] was 103%, the viability, T/C [3] was 60.1% and the viability, T/C [4] was 50.7%. For the same molecule, the viability, T/C [5] was 36%, the viability, T/C [6] was 20.1% and the viability, T/C [7] was 91.9%. The viability, T/C [8] was 93.9%, the viability, T/C [9] was 64.4% and the viability, T/C [10] was 42.9%. The viability, T/C [11] was 34.3%, the viability, T/C [12] was 25.9% and the viability, T/C [13] was 95.5%. The viability, T/C [14] was 93.4%, the viability, T/C [15] was 70.4% and the viability, T/C [16] was 44.9%. The viability, T/C [17] was 31%, the viability, T/C [18] was 24.1% and the viability, T/C [19] was 44.1%. It also gave a viability, T/C [20] of 35.2%, a viability, T/C [21] of 31.2% and a viability, T/C [22] of 14.6%. The viability, T/C [23] was 26.8%, the viability, T/C [24] was 17% and the viability, T/C [25] was 0.08%. For the same molecule, the viability, T/C [26] was 0.08%, the viability, T/C [27] was 0.07% and the viability, T/C [28] was 0.99%. It also gave a viability, T/C [29] of 0.07% and a viability, T/C [30] of 0.12%.

Work on `CC1OCC2(CCN(c3cnc(Sc4ccnc(N)c4Cl)c(N)n3)CC2)C1N` (stereo not given) + CNCc1ccccc1-c1csc(C(C)Nc2nc(C)nc3cc(OC)c(OC)cc23)c1 yielded an IC50 (second compound 0.1 µM) of over 10000 nM, an IC50 (second compound 0.316 µM) of over 10000 nM and an IC50 (second compound 1 µM) of over 10000 nM. It also gave an IC50 (second compound 3.16 µM) of under 31.6 nM, an IC50 (second compound 10 µM) of under 31.6 nM and a viability, T/C [2] of 103%. For the same molecule, the viability, T/C [3] was 97.3%, the viability, T/C [4] was 88.2% and the viability, T/C [5] was 76.4%. It also gave a viability, T/C [6] of 78.1%, a viability, T/C [31] of 74.6% and a viability, T/C [8] of 92.2%. For the same molecule, the viability, T/C [9] was 90.9%, the viability, T/C [10] was 90.5% and the viability, T/C [11] was 81.1%. The viability, T/C [12] was 82.6%, the viability, T/C [32] was 75.3% and the viability, T/C [14] was 91.2%. For the same molecule, the viability, T/C [15] was 88.5%, the viability, T/C [16] was 86.9% and the viability, T/C [17] was 78.7%. It also gave a viability, T/C [18] of 72.4%, a viability, T/C [33] of 67.6% and a viability, T/C [20] of 50.8%. For the same molecule, the viability, T/C [21] was 38.7%, the viability, T/C [22] was 52.9% and the viability, T/C [23] was 30.8%. It also gave a viability, T/C [24] of 29.4%, a viability, T/C [34] of 25.9% and a viability, T/C [26] of 0.09%. It also gave a viability, T/C [27] of 0.09%, a viability, T/C [28] of 0.08% and a viability, T/C [29] of 0.09%. For the same molecule, the viability, T/C [30] was 0.42% and the viability, T/C [35] was 0.17%.

In the case of `Cn1nccc1Nc1nccc(-c2cc3c(s2)C(C)(C)N(CCN2CCOCC2)C3=O)n1` + CNCc1ccccc1-c1csc(C(C)Nc2nc(C)nc3cc(OC)c(OC)cc23)c1, the IC50 (second compound 0.1 µM) is reported as 2080 nM, the IC50 (second compound 0.316 µM) is reported as 2500 nM and the IC50 (second compound 1 µM) is reported as 1610 nM. It also gave an IC50 (second compound 3.16 µM) of under 31.6 nM, an IC50 (second compound 10 µM) of under 31.6 nM and a viability, T/C [2] of 106%. It also gave a viability, T/C [3] of 97.4%, a viability, T/C [4] of 99.6% and a viability, T/C [5] of 89.8%. For the same molecule, the viability, T/C [6] was 27.4%, the viability, T/C [31] was 3.87% and the viability, T/C [8] was 90.7%. For the same molecule, the viability, T/C [9] was 94.5%, the viability, T/C [10] was 86.7% and the viability, T/C [11] was 81.3%. It also gave a viability, T/C [12] of 42%, a viability, T/C [32] of 4.06% and a viability, T/C [14] of 95.4%. It also gave a viability, T/C [15] of 106%, a viability, T/C [16] of 93.3% and a viability, T/C [17] of 77.4%. For the same molecule, the viability, T/C [18] was 11.2%, the viability, T/C [33] was 3.35% and the viability, T/C [20] was 25.9%. It also gave a viability, T/C [21] of 51%, a viability, T/C [22] of 58% and a viability, T/C [23] of 24.2%. For the same molecule, the viability, T/C [24] was 0.16%, the viability, T/C [34] was 0.12% and the viability, T/C [26] was 0.09%. It also gave a viability, T/C [27] of 0.11%, a viability, T/C [28] of 0.08% and a viability, T/C [29] of 0.06%. For the same molecule, the viability, T/C [30] was 0.06% and the viability, T/C [35] was 0.09%.

`CC(=O)OC12COC1CC(O)C1(C)C(=O)C(O)C3=C(C)C(OC(=O)C(O)C(NC(=O)OC(C)(C)C)c4ccccc4)CC(O)(C(OC(=O)c4ccccc4)C21)C3(C)C` (stereo not given) + COc1cc2nc(C)nc(NC(C)c3cc(N)cc(C(F)(F)F)c3)c2cc1OC1CCOC1 gave an IC50 (second compound 0.1 µM) of 180 nM, an IC50 (second compound 0.316 µM) of 143 nM and an IC50 (second compound 1 µM) of 166 nM. It also gave an IC50 (second compound 3.16 µM) of 66.2 nM, an IC50 (second compound 10 µM) of 69.7 nM and a viability, T/C [1] of 95%. The viability, T/C [2] was 87%, the viability, T/C [3] was 62.2% and the viability, T/C [4] was 38.4%. The viability, T/C [5] was 27%, the viability, T/C [6] was 24.5% and the viability, T/C [7] was 96.1%. It also gave a viability, T/C [8] of 92.7%, a viability, T/C [9] of 56.4% and a viability, T/C [10] of 34.6%. The viability, T/C [11] was 24.7%, the viability, T/C [12] was 23.3% and the viability, T/C [13] was 82.2%. The viability, T/C [14] was 78.7%, the viability, T/C [15] was 62.1% and the viability, T/C [16] was 34.6%. The viability, T/C [17] was 26.4%, the viability, T/C [18] was 24.5% and the viability, T/C [19] was 71.8%. The viability, T/C [20] was 67%, the viability, T/C [21] was 40.3% and the viability, T/C [22] was 28.1%. The viability, T/C [23] was 24.9%, the viability, T/C [24] was 24.2% and the viability, T/C [25] was 72.4%. The viability, T/C [26] was 68.9%, the viability, T/C [27] was 41.4% and the viability, T/C [28] was 25%. For the same molecule, the viability, T/C [29] was 25.1% and the viability, T/C [30] was 24.4%.
